Values quoted from earlier work as cited in PubChem BioAssay AID1259409 (Chemical Carcinogenesis Research Information System (CCRIS), 2018).

Tested on: rodent chemically induced tumor inhibition, incidence and multiplicity
Assay: CCRIS tumor inhibitor studies
Details: for tumour outcome (control, treated, inhibition, significance): Promoter: NONE USED; for outcome: Carcinogen: AZOXYMETHANE [25843-45-2], 1 WK AFTER LAST AZOXYMETHANE INJECTION (STUDY DURATION: 36 WK), Route [Inhibitor]: DIET, Strain/Sex: F344/MALE, Dose [Carcinogen]: 20 MG/KG 1X A WK FOR 2 WK

O=C1C=CC(=O)O1 (tested in a mixture with another compound)
tumour outcome (control, treated, inhibition, significance) (Carcinogen: N-BUTYL-N-(4-HYDROXYBUTYL)NITROSAMINE, 3817-11-6, Dose [Inhibitor]: 12.5 MG/KG IN 4 WK CYCLES OF 1/WK FOR 3 WK AND 1 WK REST STARTING 1 WK AFTER CARCINOGEN ADMINISTRATION THROUGH END OF ST, Route [Inhibitor]: INTRAPERITONEAL, Species: MOUSE, Strain/Sex: BDF1/MALE, Target Tissue: Type of Lesion: URINARY BLADDER: TRANSITIONAL CELL CARCINOMA, Dose [Carcinogen]: 7.5 MG 1/WK FOR 8 WK): 19/50 (38%), 14/50 (28%), 26%, not significant | tumour outcome (control, treated, inhibition, significance) (Carcinogen: N-BUTYL-N-(4-HYDROXYBUTYL)NITROSAMINE, 3817-11-6, Dose [Inhibitor]: 12.5 MG/KG IN 4 WK CYCLES OF 3 WK DOSE (1 DOSE/WK) AND 1 WK REST STARTING 1 WK AFTER CARCINOGEN DOSE THROUGH END OF STUD, Route [Inhibitor]: INTRAPERITONEAL, Species: MOUSE, Strain/Sex: DBF1/MALE, Target Tissue: Type of Lesion: URINARY BLADDER: TRANSITIONAL CELL CARCINOMA, Dose [Carcinogen]: 7.5 MG 1/WK FOR 8 WK): 19/50 (38%), 14/50 (28%), 26%, not significant | tumour outcome (control, treated, inhibition, significance) (Carcinogen: N-BUTYL-N-(4-HYDROXYBUTYL)NITROSAMINE, 3817-11-6, Dose [Inhibitor]: 25 MG/KG IN 4 WK CYCLES OF 1/WK FOR 3 WK AND 1 WK REST STARTING 1 WK AFTER CARCINOGEN ADMINISTRATION THROUGH END OF STUD, Route [Inhibitor]: INTRAPERITONEAL, Species: MOUSE, Strain/Sex: BDF1/MALE, Target Tissue: Type of Lesion: URINARY BLADDER: TRANSITIONAL CELL CARCINOMA, Dose [Carcinogen]: 7.5 MG 1/WK FOR 8 WK): 19/50 (38%), 7/46 (15%), 61%, p<0.05 | tumour outcome (control, treated, inhibition, significance) (Carcinogen: N-BUTYL-N-(4-HYDROXYBUTYL)NITROSAMINE, 3817-11-6, Dose [Inhibitor]: 25 MG/KG IN 4 WK CYCLES OF 3 WK DOSE (1 DOSE/WK) AND 1 WK REST STARTING 1 WK AFTER CARCINOGEN DOSE THROUGH END OF STUDY, Route [Inhibitor]: INTRAPERITONEAL, Species: MOUSE, Strain/Sex: DBF1/MALE, Target Tissue: Type of Lesion: URINARY BLADDER: TRANSITIONAL CELL CARCINOMA, Dose [Carcinogen]: 7.5 MG 1/WK FOR 8 WK): 19/50 (38%), 7/46 (15%), 61%, p<0.05 | tumour outcome (control, treated, inhibition, significance) (Carcinogen: N-METHYL-N-NITROSOUREA, 684-93-5, Dose [Inhibitor]: 12.5 MG/KG IN 4 WK CYCLES OF 1/WK FOR 3 WK AND 1 WK REST STARTING 7 D AFTER CARCINOGEN ADMINISTRATION THROUGH END OF STU, Route [Inhibitor]: INTRAPERITONEAL, Species: RAT, Strain/Sex: SPRAGUE-DAWLEY/FEMALE, Target Tissue: Type of Lesion: MAMMARY GLAND: ADENOCARCINOMA, Dose [Carcinogen]: 20 MG/KG BW ONCE): 64%, 52%, 19%, not significant | tumour outcome (control, treated, inhibition, significance) (Carcinogen: N-METHYL-N-NITROSOUREA, 684-93-5, Dose [Inhibitor]: 12.5 MG/KG IN 4 WK CYCLES OF 3 WK DOSE (1 DOSE/WK) AND 1 WK REST STARTING 7 D AFTER CARCINOGEN DOSE THROUGH THE END OF S, Route [Inhibitor]: INTRAPERITONEAL, Species: RAT, Strain/Sex: SPRAGUE-DAWLEY/FEMALE, Target Tissue: Type of Lesion: MAMMARY GLAND: ADENOCARCINOMA, Dose [Carcinogen]: 20 MG/KG BW ONCE): 64%, 52%, 19%, not significant | tumour outcome (control, treated, inhibition, significance) (Carcinogen: N-METHYL-N-NITROSOUREA, 684-93-5, Dose [Inhibitor]: 25 MG/KG IN 4 WK CYCLES OF 1/WK FOR 3 WK AND 1 WK REST STARTING 7 D AFTER CARCINOGEN ADMINISTRATION THROUGH END OF STUDY, Route [Inhibitor]: INTRAPERITONEAL, Species: RAT, Strain/Sex: SPRAGUE-DAWLEY/FEMALE, Target Tissue: Type of Lesion: MAMMARY GLAND: ADENOCARCINOMA, Dose [Carcinogen]: 20 MG/KG BW ONCE): 64%, 50%, 22%, not significant | tumour outcome (control, treated, inhibition, significance) (Carcinogen: N-METHYL-N-NITROSOUREA, 684-93-5, Dose [Inhibitor]: 25 MG/KG IN 4 WK CYCLES OF 3 WK DOSE (1 DOSE/WK) AND 1 WK REST STARTING 7 D AFTER CARCINOGEN DOSE THROUGH END OF STUDY (, Route [Inhibitor]: INTRAPERITONEAL, Species: RAT, Strain/Sex: SPRAGUE-DAWLEY/FEMALE, Target Tissue: Type of Lesion: MAMMARY GLAND: ADENOCARCINOMA, Dose [Carcinogen]: 20 MG/KG BW ONCE): 64%, 50%, 22%, not significant

CC(C)(C)c1cc(CO)cc(C(C)(C)C)c1O
tumour outcome (control, treated, inhibition, significance) (Carcinogen: 7,12-DIMETHYLBENZ[A]ANTHRACENE, 57-97-6, Dose [Inhibitor]: 0, 200 MG/KG BW/D FOR 3 WK BEGINNING 2 WK PRIOR TO CARCINOGEN DOSE (STUDY DURATION: 24 WK), Route [Inhibitor]: INTRAPERITONEAL, Species: RAT, Strain/Sex: SPRAGUE-DAWLEY/FEMALE, Target Tissue: Type of Lesion: MAMMARY GLAND: TUMOR, Dose [Carcinogen]: 33.3 MG/KG BW IN 0.25 ML CORN OIL ONCE AT 50 D OF AGE): 91%, 81%, 11%, not significant

COc1ccc(-c2cc(=O)c3c(OC)c(OC)c(OC)c(OC)c3o2)cc1OC
outcome (Dose [Inhibitor]: 0.01% IN DIET FOR 34 WK, Species: RAT, Target Tissue: Type of Lesion: LARGE INTESTINE: ADENOCARCINOMA): 67, 55, 18%, not significant | outcome (Dose [Inhibitor]: 0.01% IN DIET FOR 34 WK, Species: RAT, Target Tissue: Type of Lesion: LARGE INTESTINE: ADENOMA): 33, 45, -36% | outcome (Dose [Inhibitor]: 0.05% IN DIET FOR 34 WK, Species: RAT, Target Tissue: Type of Lesion: LARGE INTESTINE: ADENOCARCINOMA): 67, 35, 48%, p<0.05 | outcome (Dose [Inhibitor]: 0.05% IN DIET FOR 34 WK, Species: RAT, Target Tissue: Type of Lesion: LARGE INTESTINE: ADENOMA): 33, 50, -52%

C#C[C@]1(O)CC[C@H]2[C@@H]3CCC4=Cc5oncc5C[C@]4(C)[C@H]3CC[C@@]21C
tumour outcome (control, treated, inhibition, significance) (Carcinogen: 7,12-DIMETHYLBENZ[A]ANTHRACENE, 57-97-6, Dose [Inhibitor]: 0, 2 MG 6 D/WK FOR 169 D BEGINNING 5 D POST CARCINOGEN DOSE (STUDY DURATION: 174 D), Route [Inhibitor]: SUBCUTANEOUS, Species: RAT, Strain/Sex: SPRAGUE-DAWLEY/FEMALE, Target Tissue: Type of Lesion: MAMMARY GLAND: MALIGNANT TUMORS, Dose [Carcinogen]: 20 MG IN 1 ML SESAME OIL ONCE): 91%, 67%, 26%, p<0.05
